# Source: patent publication US20040253665A1, “Novel peptide-producing enzyme, microbe producing the enzyme and method for dipeptide synthesis using them” (AJINOMOTO CO., INC., priority 2002, published 2004)
# Residues, ends and D or L forms follow the SMILES beside them.
# System: peptide-producing enzyme (Mono S fraction) from Empedobacter brevis strain FERM BP-8113
# Experiment: Enzyme substrate specificity (1)-(10), (13), (14)
# Format: biochemical
# Details: L-amino acid ester 100 mM, amino acid or peptide amine component 150 mM, pH 9.0, 25° C., 3 hours
# Source text: Ester specificity was examined in the case of using L-amino acid ester for the carboxy component. […] The amounts of L-Ala-L-Gln produced in this reaction are shown in Table 4 (HCl represents hydrochloride in Table 4). Peptide production was examined in the case of using L-alanine methyl ester for the carboxy component and using various L-amino acids for the amine component. […] (The “+” mark indicates those peptides for which production was confirmed but which were unable to be quantified due to the absence of a standard, while “tr” indicates a trace amount.) Peptide production was examined in the case of using various types of L-amino acid methyl esters for the carboxy component and using L-glutamine for the amine component. […] Peptide production was examined in the case of using various L-amino acid methyl esters for the carboxy component and various L-amino acids for the amine component. […] (The “tr” indicates a trace amount.) Furthermore, Tween-80 was added to the reaction system to a final concentration of 0.1% in the case of using L-Trp-OMe. (The “+” mark indicates those peptides for which production was confirmed but which were unable to be quantified due to the absence of a standard.) […] (The “tr” indicates a trace amount.) Peptide production was examined using various L-amino acid amides for the carboxy component, and various L-amino acids for the amine component. […] Peptide production was examined in the case of using various L-alanine methyl esters for the carboxy component and C-protected L-amino acids for the amine component. […] Peptide production was examined in the case of using various amino acid methyl esters for the carboxy component and methylamine for the amine component. […] Peptide production was examined in the case of using β-amino acid ester for the carboxy component or β-amino acid for the amine component. […] (The “tr” indicates a trace amount.) Oligopeptide production was examined in the case of using L-amino acid ester for the carboxy component and peptide for the amine component. […] Substrate specificity was additionally assessed using the same enzyme fraction as that used in Example 5. […] (A “+” mark indicates those for which production was confirmed but which were unable to be quantified due to the absence of a standard, while “tr” indicates a trace amount). Substrate specificity with respect to oligopeptide production was assessed using the same enzyme fraction as Example 26. […] (A “+” mark indicates those for which production was confirmed but which were unable to be quantified due to the absence of a standard, while “tr” indicates a trace amount). It should be noted that hydrochlorides were used for all of the carboxy components.
row,Compound,Produced peptide [mM]
1,L-Ala-Gly-Gly,41.7
2,L-Ala-Gly-L-Ala,25.9
3,L-Ala-L-Ala-L-Ala,57.5
4,L-Ala-L-Ala-L-Ala-L-Ala,44.5
5,L-Ala-L-His-L-Ala,55.9
6,L-Ala-L-Leu-L-Ala,48.3
7,L-Ala-L-Phe-Gly,43.7
8,L-Ala-L-Phe-L-Ala,49.7
9,L-Thr-Gly-Gly,83.0

# Same assay, conditions: L-amino acid methyl ester hydrochloride 100 mM, 150 mM L-glutamine, pH 9.0, 25° C., 3 hours
row,Compound,Produced peptide [mM]
1,NC(=O)CC[C@H](NC(=O)[C@@H](N)CO)C(=O)O [L-Ser-L-Gln] (H-Ser-Gln-OH),24.0
2,NC(=O)CC[C@H](NC(=O)[C@@H](N)Cc1ccc(O)cc1)C(=O)O [L-Tyr-L-Gln] (H-Tyr-Gln-OH),3.4
3,CC(C)[C@H](N)C(=O)N[C@@H](CCC(N)=O)C(=O)O [L-Val-L-Gln] (H-Val-Gln-OH),15.4

# Same assay, conditions: L-amino acid methyl ester hydrochloride 100 mM, L-amino acid 150 mM, pH 9.0, 25° C., 3 hours
row,Compound,Produced peptide [mM]
1,CSCC[C@H](NC(=O)[C@@H](N)CO)C(=O)O [L-Ser-L-Met] (H-Ser-Met-OH),12.5
2,N[C@@H](CO)C(=O)N[C@@H](Cc1ccccc1)C(=O)O [L-Ser-L-Phe],20.3
3,C[C@@H](O)[C@H](N)C(=O)NCC(=O)O [L-Thr-Gly] (H-Thr-Gly-OH),9.4
4,C[C@H](NC(=O)[C@@H](N)[C@@H](C)O)C(=O)O [L-Thr-L-Ala] (H-Thr-Ala-OH),9.4
5,CSCC[C@H](NC(=O)[C@@H](N)[C@@H](C)O)C(=O)O [L-Thr-L-Met] (H-Thr-Met-OH),38.6
6,CC(C)[C@H](NC(=O)[C@@H](N)[C@@H](C)O)C(=O)O [L-Thr-L-Val] (H-Thr-Val-OH),0.7
7,CC(C)[C@H](N)C(=O)N[C@@H](Cc1ccccc1)C(=O)O [L-Val-L-Phe] (H-Val-Phe-OH),6.1
8,CC(C)[C@H](N)C(=O)N[C@@H](CO)C(=O)O [L-Val-L-Ser] (H-Val-Ser-OH),30.8

# Same assay, conditions: amino acid methyl ester 100 mM, methylamine 150 mM, pH 9.0, 25° C., 3 hours
row,Compound,Produced peptide [mM]
1,CNC(=O)[C@@H](N)[C@@H](C)O [L-Thr-methylamine],0.2

# System: enzyme (SP-Sepharose HP fraction) derived from Sphingobacterium sp. strain FERM BP-8124
# Experiment: not given
# Format: biochemical
# Details: Table 15-2; carboxy component 100 mM, L-Gln 150 mM, 0.33 units enzyme, pH 9.0, 25° C., 1.5 hours
# Procedure: Substrate specificity was examined for enzyme derived from Sphingobacterium sp. strain FERM BP-8124 (Depositary institution: National Institute for Advanced Industrial Science and Technology, International Patent Organism Depositary, Address of depositary institution: Central. 6, 1-1-1 Higashi, Tsukuba City, Ibaraki Prefecture, Japan, International deposit date: Jul. 22, 2002). 100 μl of 100 mM borate buffer (pH 9.0) containing the various carboxy components at a final concentration of 100 mM and the various amine components at a final concentration of 150 mM shown in Tables 15-1 to 15-4, the SP-Sepharose HP fraction enzyme purified in Example 22 (addition of 0.33 units in the reaction liquid) and 10 mM EDTA were allowed to react at 25° C. for 1.5 hours. […] In addition, hydrochlorides were used for all carboxy components.
# Substrate specificity with respect to oligopeptide production was examined for enzyme derived from Sphingobacterium sp. strain FERM BP-8124 (Depositary institution: National Institute for Advanced Industrial Science and Technology,.International Patent Organism Depositary, Address of depositary institution: Chuo Dai-6, 1-1 Higashi 1-Chome, Tsukuba-shi, Ibaraki-ken, Japan, International deposit date: Jul. 22, 2002). A 100 μl aliquot of 100 mM borate buffer (pH 9.0) containing the various carboxy components at a final concentration of 100 mM and the various amine components at a final concentration of 150 mM shown in Table 16, the SP-Sepharose HP fraction enzyme purified in Example 22 (addition of 0.33 units in the reaction liquid) and 10 mM EDTA were allowed to react for 1.5 hours at 25° C. Furthermore, hydrochloride salts were used for all carboxy components.
row,Compound,Produced peptide [mM]
1,NC(=O)CC[C@H](NC(=O)[C@@H](N)CO)C(=O)O [L-Ser-L-Gln] (H-Ser-Gln-OH),12.9
2,NC(=O)CC[C@H](NC(=O)[C@@H](N)Cc1ccc(O)cc1)C(=O)O [L-Tyr-L-Gln] (H-Tyr-Gln-OH),0.6
3,CC(C)[C@H](N)C(=O)N[C@@H](CCC(N)=O)C(=O)O [L-Val-L-Gln] (H-Val-Gln-OH),8.2

# Same assay, conditions: Table 15-3; carboxy component 100 mM, amine component 150 mM, 0.33 units enzyme, pH 9.0, 25° C., 1.5 hours
row,Compound,Produced peptide [mM]
1,CSCC[C@H](NC(=O)[C@@H](N)CO)C(=O)O [L-Ser-L-Met] (H-Ser-Met-OH),7.6
2,N[C@@H](CO)C(=O)N[C@@H](Cc1ccccc1)C(=O)O [L-Ser-L-Phe],4.3
3,C[C@@H](O)[C@H](N)C(=O)NCC(=O)O [L-Thr-Gly] (H-Thr-Gly-OH),0.4
4,C[C@H](NC(=O)[C@@H](N)[C@@H](C)O)C(=O)O [L-Thr-L-Ala] (H-Thr-Ala-OH),5.8
5,CSCC[C@H](NC(=O)[C@@H](N)[C@@H](C)O)C(=O)O [L-Thr-L-Met] (H-Thr-Met-OH),28.9
6,CC(C)[C@H](NC(=O)[C@@H](N)[C@@H](C)O)C(=O)O [L-Thr-L-Val] (H-Thr-Val-OH),1.3
7,CC(C)[C@H](N)C(=O)N[C@@H](Cc1ccccc1)C(=O)O [L-Val-L-Phe] (H-Val-Phe-OH),1.0
8,CC(C)[C@H](N)C(=O)N[C@@H](CO)C(=O)O [L-Val-L-Ser] (H-Val-Ser-OH),31.9

# Same assay, conditions: Table 15-4; amides or methylamine as components; 100 mM / 150 mM, 0.33 units enzyme, pH 9.0, 25° C., 1.5 hours
row,Compound,Produced peptide [mM]
1,CNC(=O)[C@@H](N)[C@@H](C)O [L-Thr-methylamine],0.3

# Same assay, conditions: Table 16, oligopeptide production; carboxy component 100 mM, amine component 150 mM, 0.33 units enzyme, pH 9.0, 25° C., 1.5 hours
row,Compound,Produced peptide [mM]
1,L-Ala-Gly-Gly,33.7
2,L-Ala-Gly-L-Ala,35.1
3,L-Ala-L-Ala-L-Ala,41.1
4,L-Ala-L-Ala-L-Ala-L-Ala,30.1
5,L-Ala-L-His-L-Ala,58.0
6,L-Ala-L-Leu-L-Ala,40.7
7,L-Ala-L-Phe-Gly,34.0
8,L-Ala-L-Phe-L-Ala,24.8
9,L-Thr-Gly-Gly,8.4
